Data: article PMC3367201 (Nucleic Acids Research, 2012)

Target: Hp ND-AspRS (non-discriminating aspartyl-tRNA synthetase) (Helicobacter pylori, UniProt P56459)
Test: inhibition of tRNA aminoacylation with […] L-Asp
Format: biochemical

Hp ND-AspRS (non-discriminating aspartyl-tRNA synthetase), sequence (P56459 whole entry): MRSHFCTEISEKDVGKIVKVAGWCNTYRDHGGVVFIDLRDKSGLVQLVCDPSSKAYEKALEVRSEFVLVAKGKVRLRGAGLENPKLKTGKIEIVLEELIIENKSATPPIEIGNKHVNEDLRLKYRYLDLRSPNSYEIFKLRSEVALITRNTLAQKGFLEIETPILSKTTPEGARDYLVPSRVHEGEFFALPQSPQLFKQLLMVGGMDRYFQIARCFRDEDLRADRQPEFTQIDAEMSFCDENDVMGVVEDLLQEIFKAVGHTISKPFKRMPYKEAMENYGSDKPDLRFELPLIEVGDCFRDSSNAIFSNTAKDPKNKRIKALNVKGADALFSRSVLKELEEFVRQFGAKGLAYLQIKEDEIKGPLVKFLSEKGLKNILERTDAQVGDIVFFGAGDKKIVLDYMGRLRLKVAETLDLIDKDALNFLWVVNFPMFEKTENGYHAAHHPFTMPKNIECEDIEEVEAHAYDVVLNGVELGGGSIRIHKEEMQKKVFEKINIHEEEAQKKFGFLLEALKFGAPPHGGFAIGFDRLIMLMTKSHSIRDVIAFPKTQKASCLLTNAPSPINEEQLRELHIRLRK

- Ki: 8 µM
Structure (SMILES): Nc1ncnc2c1ncn2[C@@H]1O[C@H](COP(=O)(O)OC[C@@H](N)CC(=O)O)[C@@H](O)[C@H]1O [Asp-ol-AMP]
